In the NIST ThermoML archive (doi:10.1021/je060271a):

Settings: 283.15 K, Liquid, Vibrating tube method

CCCCCCCC(=O)OCC(COC(=O)CCCCCCC)(COC(=O)CCCCCCC)COC(=O)CCCCCCC [pentaerythritol tetraoctanoate]
Settings | mass density [kg/m3]
7440.8 kPa | 974.4
7459 kPa | 974.5
7477.1 kPa | 974.5
7498.5 kPa | 974.5
7516.3 kPa | 974.6
7534.1 kPa | 974.5
7555.6 kPa | 974.6
7574.3 kPa | 974.6
7592.6 kPa | 974.6
7614.9 kPa | 974.6
7633.7 kPa | 974.6
7652.5 kPa | 974.6
7671.5 kPa | 974.7
7693.9 kPa | 974.6
7713.6 kPa | 974.7
7732.4 kPa | 974.7
7751.9 kPa | 974.7
7774.9 kPa | 974.8
7794.2 kPa | 974.7
7813.7 kPa | 974.8
7837.5 kPa | 974.7
7857 kPa | 974.8
7877.2 kPa | 974.8
7897.6 kPa | 974.8
7917.4 kPa | 974.8
7942.4 kPa | 974.8
7963.7 kPa | 974.8
7984.1 kPa | 974.8
8005.2 kPa | 974.9
8025.4 kPa | 974.9
8049.7 kPa | 974.8
8070.2 kPa | 974.9
8092.5 kPa | 975.1
8117.1 kPa | 974.9
8138 kPa | 974.8
8159.8 kPa | 974.9
8184.3 kPa | 974.9
8205.1 kPa | 975
8227.9 kPa | 974.9
8252.3 kPa | 975
8274.2 kPa | 975
8300.2 kPa | 975.1
8322.1 kPa | 975.1
8344.2 kPa | 975.1
8367 kPa | 975.1
8393.5 kPa | 975
8415.8 kPa | 975.1
8438.6 kPa | 975
8465.5 kPa | 975.1
8487.9 kPa | 975.1
8516.4 kPa | 975.2
8539.8 kPa | 975.1
8563.6 kPa | 975.1
8586.9 kPa | 975.2
8615 kPa | 975.2
8638.6 kPa | 975.2
8666.6 kPa | 975.3
8690.7 kPa | 975.3
8714.3 kPa | 975.1
8744.3 kPa | 975.2
8768.6 kPa | 975.3
8793.6 kPa | 975.4
8822.8 kPa | 975.4
8847.1 kPa | 975.3
8872.8 kPa | 975.3
8898.8 kPa | 975.4
8929.2 kPa | 975.3
8953.6 kPa | 975.4
8985 kPa | 975.4
9011.4 kPa | 975.4
9037.2 kPa | 975.4
9063.1 kPa | 975.5
9095 kPa | 975.3
9120.9 kPa | 975.4
9152 kPa | 975.5
9179.6 kPa | 975.5
9206.9 kPa | 975.5
9238.7 kPa | 975.5
9266.5 kPa | 975.5
9295.1 kPa | 975.6
9323 kPa | 975.5
9356.5 kPa | 975.6
9383.9 kPa | 975.2
9416.6 kPa | 975.6
9445.6 kPa | 975.6
9474.8 kPa | 975.6
9509.1 kPa | 975.6
9537.9 kPa | 975.7
9567.4 kPa | 975.8
9602.7 kPa | 975.7
9633 kPa | 975.8
9662.7 kPa | 975.7
9692.8 kPa | 975.8
9730.2 kPa | 975.8
9760.9 kPa | 975.8
9797 kPa | 975.9
9827.4 kPa | 975.9
9859.1 kPa | 975.8
9890.1 kPa | 975.9
9927.8 kPa | 975.9
9959.5 kPa | 976
9991.2 kPa | 976
10030 kPa | 975.8
10063 kPa | 975.9
10103 kPa | 976
10135 kPa | 975.9
10169 kPa | 976
10203 kPa | 976.1
10243 kPa | 976.1
10276 kPa | 976
10311 kPa | 976.1
10352 kPa | 976
10387 kPa | 976.1
10421 kPa | 976.1
10464 kPa | 976.2
10500 kPa | 976.2
10539 kPa | 976.3
10575 kPa | 976.4
10612 kPa | 976.3
10655 kPa | 976.1
10692 kPa | 976.4
10736 kPa | 976.3
10773 kPa | 976.4
10813 kPa | 976.3
10851 kPa | 976.4
10890 kPa | 976.5
10936 kPa | 976.5
10974 kPa | 976.5
11022 kPa | 976.5
11063 kPa | 976.4
11103 kPa | 976.5
11143 kPa | 976.6
11183 kPa | 976.6
11232 kPa | 976.8
11272 kPa | 976.6
11322 kPa | 976.6
11363 kPa | 976.6
11404 kPa | 976.6
11456 kPa | 976.9
11499 kPa | 976.7
11542 kPa | 976.8
11594 kPa | 976.8
11639 kPa | 976.8
11683 kPa | 976.8
11736 kPa | 976.9
11780 kPa | 976.8
11826 kPa | 977
11881 kPa | 976.9
11928 kPa | 976.9
11974 kPa | 977.1
12022 kPa | 977
12078 kPa | 977
12126 kPa | 977.1
12174 kPa | 977.1
12234 kPa | 977.1
12283 kPa | 977.2
12334 kPa | 977.2
12394 kPa | 977.1
12445 kPa | 977.3
12496 kPa | 977.2
12548 kPa | 977.3
12611 kPa | 977.3
12662 kPa | 977.3
12708 kPa | 977.5
12785 kPa | 977.5
12834 kPa | 977.5
12903 kPa | 977.4
12955 kPa | 977.6
12988 kPa | 977.5
13021 kPa | 977.6
13054 kPa | 977.6
13095 kPa | 977.6
13128 kPa | 977.6
13170 kPa | 977.5
13204 kPa | 977.8
13238 kPa | 977.7
13272 kPa | 977.7
13314 kPa | 977.8
13350 kPa | 977.7
13385 kPa | 977.8
13427 kPa | 977.8
13463 kPa | 977.8
13506 kPa | 977.9
13542 kPa | 977.9
13579 kPa | 977.9
13615 kPa | 978
13660 kPa | 977.9
13697 kPa | 977.8
13734 kPa | 977.9
13779 kPa | 978
13816 kPa | 978.1
13863 kPa | 978
13902 kPa | 978
13942 kPa | 978.1
13982 kPa | 978.1
14031 kPa | 978.1
14074 kPa | 978.2
14118 kPa | 978.2
14166 kPa | 978.1
14190 kPa | 978.3
14210 kPa | 978.2
14230 kPa | 978.3
14254 kPa | 978.2
14274 kPa | 978.3
14298 kPa | 978.3
14319 kPa | 978.3
14340 kPa | 978.4
14360 kPa | 978.3
14384 kPa | 978.3
14405 kPa | 978.4
14426 kPa | 978.4
14446 kPa | 978.4
14472 kPa | 978.2
14492 kPa | 978.3
14514 kPa | 978.3
14539 kPa | 978.5
14560 kPa | 978.4
14582 kPa | 978.4
14608 kPa | 978.5
14625 kPa | 978.5
14650 kPa | 978.4
14671 kPa | 978.4
14693 kPa | 978.6
14718 kPa | 978.4
14740 kPa | 978.5
14765 kPa | 978.6
14787 kPa | 978.6
14809 kPa | 978.6
14835 kPa | 978.4
14857 kPa | 978.6
14879 kPa | 978.7
14906 kPa | 978.6
14928 kPa | 978.7
14950 kPa | 978.5
14976 kPa | 978.6
14999 kPa | 978.6
15022 kPa | 978.7
15044 kPa | 978.7
15071 kPa | 978.7
15093 kPa | 978.7
15116 kPa | 978.5
15143 kPa | 978.8
15166 kPa | 978.7
15189 kPa | 978.8
15217 kPa | 978.7
15240 kPa | 978.8
15263 kPa | 978.6
15291 kPa | 978.9
15314 kPa | 978.8
15338 kPa | 978.9
15366 kPa | 978.7
15389 kPa | 978.8
15417 kPa | 978.9
15441 kPa | 978.9
15465 kPa | 978.9
15488 kPa | 978.9
15517 kPa | 979
15542 kPa | 978.9
15566 kPa | 978.9
15595 kPa | 978.9
15620 kPa | 978.9
15644 kPa | 979
15673 kPa | 979
15698 kPa | 979
15722 kPa | 979
15752 kPa | 979.1
15776 kPa | 979.1
15801 kPa | 979.2
15831 kPa | 979
15856 kPa | 979.1
15882 kPa | 979.1
15912 kPa | 979.2
15938 kPa | 979.2
15963 kPa | 979.1
15994 kPa | 979.2
16019 kPa | 979.2
16045 kPa | 979.1
16076 kPa | 979.2
16102 kPa | 979.2
16128 kPa | 979.4
16159 kPa | 979.2
16185 kPa | 979.2
16212 kPa | 979.2
16238 kPa | 979.4
16270 kPa | 979.3
16296 kPa | 979.4
16328 kPa | 979.4
16355 kPa | 979.5
16382 kPa | 979.5
16409 kPa | 979.4
16441 kPa | 979.5
16468 kPa | 979.5
16501 kPa | 979.4
16528 kPa | 979.5
16556 kPa | 979.4
16591 kPa | 979.4
